Assay results taken from article PMC10426190 (Breast Cancer Research : BCR, 2023).
Like-named read-outs stand apart in the source and are kept apart here. One block for each compound: values may come before it.

What was measured:
[1] = tested on: ER + breast cancer cell lines; assay: Proliferation assay across ER-positive cell panel; type: cell-based, human; conditions: CAMA-1 and HCC1500, 7 days
Experimental: (§1) Trypsinized cells were dispensed into 384-well plates in culture media and after overnight incubation cells were treated with compounds for 7 days. Cell viability was assessed using CellTiter-Glo (Promega) according to the manufacturer’s protocol and relative luminescence units (RLU) were measured using an Envision Multilabel Reader (Perkin Elmer). […] IC50 and Imax were analyzed with IDBS XLfit.
MCF7 cells were seeded in a 384-well plate and linear-dilution compounds were administrated in duplicate for each treatment. After incubation for 24 h, Cells in the assay pate were treated as described in methods. ERα levels were quantified by immunofluorescence assay. […] Data are given as mean ± SEM. b The maximal ERα degradation across an ER-positive cell panel was evaluated in an In-cell Western assay. Cells were dispended into 96-well plates and incubated for 24 h with compounds (100 nM) treatment. […] Cells were seeded in 384-well plates and treated with linear-dilution compounds for 7 days of incubation. Cell viability was assessed using CellTiter-Glo. Cell growth inhibition is presented as a percentage of CellTiterGlo activity relative to the vehicle control. […] WT (e) and ER. Y537S cells (f). […] Then cells in each well were collected and the targeting proteins in lysate supernatant were detected by WB

ERα [2] = target: T1, ERα (Homo sapiens, UniProt P03372); assay: Maximal ERα degradation across ER-positive cell panel, In-cell Western, 100 nM; type: cell-based; conditions: 24 h, EFM-19, CAMA-1, HCC1500, T47D, BT-474
T1 sequence (P03372 1-595): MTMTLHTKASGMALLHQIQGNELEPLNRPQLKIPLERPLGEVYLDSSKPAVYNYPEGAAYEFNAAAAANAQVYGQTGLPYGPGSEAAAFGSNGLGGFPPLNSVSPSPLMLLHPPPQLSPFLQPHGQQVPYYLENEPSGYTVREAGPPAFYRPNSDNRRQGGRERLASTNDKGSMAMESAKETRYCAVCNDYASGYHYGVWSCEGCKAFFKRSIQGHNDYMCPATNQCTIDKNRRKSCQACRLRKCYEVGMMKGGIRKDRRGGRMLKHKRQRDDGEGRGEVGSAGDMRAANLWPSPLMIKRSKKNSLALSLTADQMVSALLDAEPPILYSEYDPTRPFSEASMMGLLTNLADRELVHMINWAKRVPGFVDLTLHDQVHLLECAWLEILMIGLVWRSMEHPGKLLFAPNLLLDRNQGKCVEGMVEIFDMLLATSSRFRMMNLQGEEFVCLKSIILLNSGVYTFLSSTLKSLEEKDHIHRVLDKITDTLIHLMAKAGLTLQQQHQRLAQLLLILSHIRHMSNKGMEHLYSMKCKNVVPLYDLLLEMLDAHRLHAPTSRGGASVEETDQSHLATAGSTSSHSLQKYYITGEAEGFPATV
Experimental: (§2) MCF7 cells were seeded in a 384-well plate and linear-dilution compounds were administrated in duplicate for each treatment. After incubation for 24 h, Cells in the assay pate were treated as described in methods. ERα levels were quantified by immunofluorescence assay. […] Cells were dispended into 96-well plates and incubated for 24 h with compounds (100 nM) treatment. […] Cells were seeded in 384-well plates and treated with linear-dilution compounds for 7 days of incubation. Cell viability was assessed using CellTiter-Glo. Cell growth inhibition is presented as a percentage of CellTiterGlo activity relative to the vehicle control. […] Then cells in each well were collected and the targeting proteins in lysate supernatant were detected by WB

[3] = Brain distribution study in mice; conditions: oral 10 mg/kg once a day (fulvestrant 250 mg/kg sc once per week), 24 h post last dose
Experimental: The blood and brain tissues were collected at 24 h post the last dose. […] All blood was collected in K2-EDTA tubes and plasma was obtained by centrifuging the blood at 3200 rpm for 10 min at 4 °C and the brain was rinsed with water and blotted to remove superficial meninges. Plasma and brain samples were stored at − 80 °C until LC–MS/MS analysis which was performed on an Acquity UPLC system (Waters, USA) coupled to an AB SCIEX Triple Quad 6500 + System.
Brain conc./plasma conc. was presented as a B/P ratio

[4] = set-up: method as in PMID 26149830; conditions: mice, 30 mg/kg, approximately 12 h ref 38; cited from earlier work
[5] = set-up: method as in PMID 30018387; conditions: cited from earlier work
intracranial tumor = conditions: cited from earlier work
[6] = tested on: ER+ breast cancer, WT or mutant ESR1; set-up: method as in EMERALD (NCT03778931), ASCO, 2022; conditions: ASCO, 2022, cited from earlier work
[7] = tested on: MCF-7 subcutaneous tumors; assay: MCF-7 subcutaneous xenograft, combination with Palbociclib; type: in vivo, mouse; conditions: MCF-7 sc, Palbociclib 40 mg/kg monotherapy
Experimental: Female Balb/c nude mice were used for MCF-7 and T47D tumor subcutaneous xenograft studies. At least one day before tumor cell implantation, estrogen pellets (0.18 mg, 17β-Estradiol, 60-day release, Innovative Research of America, Sarasota, FL, USA) were implanted subcutaneously. Each mouse was subcutaneously injected with 1 × 10^7 MCF-7 (ECACC) or T47D cells in the right flank, and tumor growth was monitored. The long diameter (a) and the short diameter (b) of the tumor were measured using a caliper, and the tumor volume was calculated using the following formula: V = 0.5 × a × b^2. […] Tumor volumes were evaluated twice per week. Treatment tolerability was assessed by body weight measurements and frequent observation for clinical signs of treatment-related adverse effects.
(§3) Statistical and graphical presentations were performed using IDBS XLfit and GraphPad Prism 9. For cell proliferation assays, the IC50 was calculated by fitting a dose–response curve using a nonlinear regression model with a log(inhibitor) vs response curve fit. […] P-values < 0.05 were considered statistically significant.
Cell viability was measured using Cell TiterGlo assay. […] The result of one representative assay from three similar independent experiments is shown.

ERα [8] = target: T1, ERα; assay: ERα degradation assay, In-Cell Western, MCF-7 WT; type: cell-based; set-up: MCF-7 wild type and Y537S mutant cells were seeded at a density of 5000 cells per well; host or cells: MCF-7; conditions: 24 h
Experimental: MCF-7 wild type and Y537S mutant cells were seeded at a density of 5000 cells per well into flat clear bottom tissue cultured-treated 384-well plates (Greiner) in culture media and after overnight incubation cells were treated with compounds for 24 h. Then plates were fixed with 4% formaldehyde, permeabilized with ice-cold methanol, and blocked with Odyssey Blocking Buffer (LI-COR). The fixed cells were incubated with rabbit anti- ERα antibody (CST#8644S) and mouse anti-GAPDH antibody (Abcam #ab8245), washed and stained with IRDye 800 Goat anti-Rabbit IgG (Licor#926-32211) and IRDye 680 Goat anti-Mouse IgG (Licor#926-68070). ERα levels were quantitated using Sapphire RGBNIR (Azure), the acumen eX3 imaging system. […] IC50 and Emax were analyzed with IDBS XLfit.
as §2
Cells were seeded at a density of 5,000 cells per well into 384-well plates and treated with linear-titration compounds in duplicate for 24 hours. ERα levels were quantified by immunofluorescence assay as described in the method. The detection signals were captured by Odyssey.

MCF-7 WT cells = assay: Viability assay (CellTiter-Glo, 7 days), MCF-7 WT; type: cell-based, human
Experimental: as §1, §3

uterine tissue = assay: Assessment of uterotropic activity in juvenile rats; type: in vivo, rat; conditions: juvenile SD rats, oral QD x 3 days; tamoxifen 60 mg/kg, SCR-6852 10 mg/kg; vs vehicle
Experimental: Twenty-four hours after the final dose, all animals were euthanized. Body weights and wet uterine weights were recorded for each animal. Fresh uterine tissue from each rat was fixed in 4% paraformaldehyde, dehydrated by HistoCore PEARL (Leica), and embedded by HistoCore Arcadia H + HistoCore Arcadia C (Leica). Sections were cut at 4 μm and stained with 0.1% toluidine blue O. The thickness of endometrial epithelium was measured using Leica Aperio CS2 with ImageScope × 64 program (Leica). The mean of five measurements per specimen was calculated.
MCF7 with hormone-deprived pre-treatment were administrated ER ligands or not present with 1 nM E2 stimulation for 24 h incubation in a 12-well plate. Total mRNA was isolated from treated cells and sequenced on an Illumina HiSeq X Ten platform. FPKM of each gene was calculated using Cufflinks and Differential expression genes analysis by using the DESeq (2012) R package. Four separate clusters were obtained. […] T47D EFM-19 and HCC1500 cells were grown in RPMI media supplemented with 10% charcoal-stripped FBS for 14 days and then treated with ER antagonist (1 μM) or DMSO in the presence E2 (1nM) stimulation for 24 h before RNA isolation and gene expression analysis as described in methods. […] Endometrial height was assessed from the basement membrane to the luminal border (scale bar in green lines: 200 μm), Arrows indicate the uterine epithelium (e).

breast cancer = tested on: breast cancer; set-up: method as in PMID 28149048; conditions: cited from earlier work

maximal ERα degradation rate across ER + cell lines (ERα [2]): less potency ERα degradation rate
SMILES: C[C@@H]1Cc2c([nH]c3ccccc23)[C@@H](c2c(F)cc(/C=C/C(=O)O)cc2F)N1CC(C)(C)F [AZD9496]
maximal anti-proliferation rate [1]: lower maximal anti-proliferation rate

B/P ratio [3]: less than onefold
SMILES: C[C@@H]1Cc2c(ccc3[nH]ncc23)[C@@H](c2ccc(NC3CN(CCCF)C3)cn2)N1CC(F)(F)F [AZD-9833]

SMILES: CCN1CCN(Cc2ccc(Nc3ncc(F)c(-c4cc(F)c5nc(C)n(C(C)C)c5c4)n3)nc2)CC1 [Abemaciclib]
target engagement ratio (unbound brain concentration to in vitro enzyme IC50) [4]: 3.3–14.3

SMILES: Nc1cc(C(F)(F)F)c(-c2cc(N3CCOCC3)nc(N3CCOCC3)n2)cn1 [Buparlisib]
B/P ratio [5]: > 1.5

SMILES: CCNCCc1ccc(CN(CC)c2cc(OC)ccc2[C@@H]2CCc3cc(O)ccc3C2)cc1 [Elacestrant]
animals survived to the end of the study (intracranial tumor; day 54 ref 41): 43%
B/P ratio (intracranial tumor; intracranial tumor, according to reported data ref 41): about 0.6
PFS rate at 12 months ([6]; ESR1 mutation population ref EMERALD (NCT03778931)): 26.76%
reduction of the risk of disease progression or death ([6]; all patients ref EMERALD (NCT03778931)): 30%
PFS rate at 12 months ([6]; overall population ref EMERALD (NCT03778931)): 22.32%
reduction of the risk of disease progression or death ([6]; patients with ESR1 mutation ref EMERALD (NCT03778931)): 45%

B/P ratio [3]: less than onefold
SMILES: C[C@@H]1Cc2c([nH]c3ccccc23)[C@@H](c2c(F)cc(NC3CN(CCCF)C3)cc2F)N1CC(F)(F)CO [GDC-9545]

SMILES: CC(=O)c1c(C)c2cnc(Nc3ccc(N4CCNCC4)cn3)nc2n(C2CCCC2)c1=O [Palbociclib]
TGI [7]: 66.34%

DC50 (ERα [8]): 0.08 nM
ERα degradation assay Dmax [% Ful.] (ERα [8]): 97.83 % Ful.
ERα degradation assay Dmax [% Veh.] (ERα [8]): 66.81 % Veh.
IC50 (MCF-7 WT cells): 0.29 nM
SMILES: CC1Cc2cc(B(O)O)ccc2C(c2c(F)cc(NC3CN(CCCF)C3)cc2F)N1CC1(F)CC1 (centres unmarked) [SCR-6515]
Viability assay Emax [% Ful.] (MCF-7 WT cells): 103.00 % Ful.
Viability assay Emax [% Veh.] (MCF-7 WT cells): 64.15 % Veh.

SMILES: CC/C(=C(\c1ccccc1)c1ccc(OCCN(C)C)cc1)c1ccccc1 [Tamoxifen]
endometrial epithelial thickness (uterine tissue): significantly increased
relative uterine wet weight (uterine tissue): significant increase
reduction of annual mortality rate (breast cancer): 31%
reduction of breast cancer recurrence (breast cancer): 50%
